Patent US6599507B2, “Composition for the treatment of immune deficiencies and methods for its preparation and use” (Ardenia Investments, Ltd., priority 1998, dated 2003)
Entries after “also recorded” stand apart in the source; their conditions may differ.

How the values were obtained:
human AFP = target: T1, human AFP (Homo sapiens, UniProt P02771); assay: Competitive substitution of [3H]arachidonic acid from the AFP binding site (Scatchard)
T1 construct: from tissue; host or cells: human cord blood
Procedure: To determine N-AAP affinity to human AFP a competitive substitution of [5, 6, 8, 9, 11, 12, 14, 15-^3H] arachidonic from the protein's binding site was used. To tubes containing 0.05 nM AFP in 1 ml 0.1 M bicarbonate buffer and 0.7 nM [3H] arachidonic acid and the increasing amounts of arachidonic acid or N-AAP (5-5000 nM) were added. The tubes were incubated for 2 hr at room temperature. To separate protein-bound and free fractions of [3H] arachidonic acid 0.5 ml of 0.5% suspension of activated carbon was added to each tube and incubated at 4° C. for 30 min. The carbon was sedimented by centrifugation at 3000 g, aliquots were added to 10 ml scintillating mixture and the vials were measured in beta-counter.
The binding parameters of arachidonic acid and N-AAP and the number of binding sites per protein molecule were calculated according to Scatchard (Scatchard O., Ann. N.Y. Acad. Sci. 51., p 660-664, 1949).

[1] = test system: antibody-forming cells (AFC) in the spleen of mice immunized with sheep erythrocytes; assay: Humoral immune response: count of antibody-forming cells (AFC) in the spleen according to Cunningham; format: in vivo, mouse; settings: for relative amount of AFC / total AFC amount: CBA mice, i.v., sheep erythrocytes i.p.; for immunogenic / immunostimulating activity, effect on humoral immune response (in words): mice immunized with sheep erythrocytes
Procedure: The influence of AFPIN-AAP complexes as well as their basic components on humoral immune response was estimated by counting the quantity of antibody-forming cells (AFC) in the spleen.
AFP was administered intravenously to 10 mouse males of CBA line (weight 18-22 g) in a dose of 0.009 mg per capita. Simultaneously 5% sheep erythrocytes suspension was injected peritoneally (0.2 ml per capita) to both control and experimental animals. The control animals were also injected with the equal volume of NaCl isotonic solution intravenously.
The effect of AFP on humoral immune response was analyzed by counting the quantity of AFC in the spleen according to Cunningham (Cunningham A. J., Nature, v.207, p. 1106-1107, 1965) (per 10^6 spleen cells and per spleen).
N-AAP was administered intravenously to 10 mouse males of CBA line (weight 18-22 g) in a dose of 0.09 mg per capita Simultaneously 5% sheep erythrocytes suspension was injected peritoneally (0.2 ml per capita). Control series were injected with 0.15 ml NaCl isotonic solution intravenously. The effect of N-AAP on humoral immune response was analysed by counting the quantity of AFC in the spleen according to Cunningham (per 10^6 spleen cells and per spleen).
(§1) 0.15 ml AFP/N-AAP complex was administered intravenously to 10 mouse males of CBA line (weight 18-22 g) in a dose of 0.009 mg AFP and 0.09 mg N-AAP per capita. Simultaneously 5% sheep erythrocytes suspension was injected peritoneally (0.2 ml per capita). Control series were intravenously injected with equal volumes of NaCl isotonic solution. The effect of the AFP/N-AAP complex on humoral immune response was analyzed by counting the quantity of AFC in the spleen according to Cunningham (per 10^6 spleen cells and per spleen).
as §1, with “0.045” for “0.09”
as §1, with “0.135” for “0.09”, “capita)” for “capita).”
In order to determine the effect of the inventive complex, 0.15 ml AFP/N-AAP complex was administered intravenously to 10 mouse males of CBA line (weight 18-22 g) in the dose of 0.009 mg rat AFP and 0.09 mg N-AAP per capita. Simultaneously 5% sheep erythrocytes suspension was injected peritoneally (0.2 ml per capita). Control series were injected intravenously with equal volumes of isotonic NaCl solution. The effect of rat AFP/N-AAP complex on humoral immune response was analyzed by counting the quantity of AFC in the spleen according to Cunningham (per 10^6 spleen cells and per spleen).

random breed male mice = assay: Acute toxicity, single intravenous injection, method of Litchfield and Wilcoxon; format: in vivo, mouse
Procedure: The toxicity of N-AAP was studied in random breed male mice (19-24 g). A water solution of N-AAP was injected once slowly in the tail vein of mice in a range of doses 40-70 mg/kg. Each group of mice included 6 animals, at least The assessment of acute toxicity was carried out according to the method of Litchfield et al. (Litchfield J. T., Wilcoxon F., J. Pharmacol. Exptl. Therap., Vol.96, P. 99-103, 1949).

[2] = mice, single i.v. injection in tail vein

## CCCCC/C=C\C/C=C\C/C=C\C/C=C\CCCC(=O)NCCOP(=O)(O)O [N-AAP, N-arachidonoyl aminoethylphosphate]
Human AFP
  Ki: 333 nM
[1]; 5-th day after injection
  relative amount of AFC in comparison with control (in words): not significantly changed
  relative amount of AFC: 342.2±28.5 per 10^6 cells
  total AFC amount: 36.0±8.7 10^3 per spleen
[1]
  immunogenic / immunostimulating activity, effect on humoral immune response (in words): does not exhibit immunogenic activity; also recorded: no immunogenic activity
Random breed male mice; [2]
  DL10: 46 mg/kg;
  DL90: 87 mg/kg
Random breed male mice; mice, single i.v. injection in tail vein, p = 0.05
  DL50: 63 (54.8 ÷ 72.5) mg/kg at p = 0.05;
Random breed male mice; mouse, in vivo
  therapeutic index: 10

## CCCCC/C=C\C/C=C\C/C=C\C/C=C\CCCC(=O)O [arachidonic acid, reference compound]
Human AFP; three independent determinations, Scatchard
  n (number of binding sites per protein molecule): > 1.2

B1: Rat AFP: Rat alpha-fetoprotein isolated from neonatal rat serum by immunoaffinity (protein, UniProt P02773 25-611, looked up)
Alpha-fetoprotein: RVLHTNEFGIESTLDSSQCPTEKNMFNVATIVVAQFVQDATKAEVNKMSSDALAAMKENTGDGCLENQLSVFLDEICHETELSNKYGFSGCCNQSGVERHQCLLARKKTAPDSVPPFHFPETAESCPAYEENRAMSINTFIYDVSKRNPFLYAPTILYLAAQYDKAVPACCKADNMEECFQTKRASMAKELREGSMLNEHVCAVIRKFGSRNLQAVLIIKLSQKFPKANITEIRKLALDVAHIHEQCCHGNAMECLQDGESVMTHMCSQQEILSSKTAECCKLPTIELGYCIIHAENGDKPEGLTLNPSEFLGDRNFAQFSSEEKLLFMASFLHEYSRNHPNLPVSVILKTAKSYQEILEKCSQSETPSKCQDNMEEELQKHIQESQALAKQSCNLYQKLGPYYLQNLFLIGYTRKAPQLTSAELIDLTGKMVSIASTCCQLSEEKRSACGEGLADIYIGHLCLRHEANPVNSGINHCCSSSYSNRRLCITSFLRDETYVPPPFSEDKFIFHKDLCQAQGRALQTMKQELLINLVKQKPEMTEEQHAAVTADFSGLLEKCCKDQDQEACFAKEGPKLISKTREALGV
[1]; 5-th day after injection
  relative amount of AFC: 428.1±11.5 per 10^6 cells
  total AFC amount: 60.3±13.5 10^3 per spleen
[1]
  immunogenic / immunostimulating activity, effect on humoral immune response (in words): no immunogenic activity

B2: AFP: Alpha-fetoprotein isolated from human cord blood, more than 99% purity (protein, UniProt P02771 19-609, looked up)
Alpha-fetoprotein: RTLHRNEYGIASILDSYQCTAEISLADLATIFFAQFVQEATYKEVSKMVKDALTAIEKPTGDEQSSGCLENQLPAFLEELCHEKEILEKYGHSDCCSQSEEGRHNCFLAHKKPTPASIPLFQVPEPVTSCEAYEEDRETFMNKFIYEIARRHPFLYAPTILLWAARYDKIIPSCCKAENAVECFQTKAATVTKELRESSLLNQHACAVMKNFGTRTFQAITVTKLSQKFTKVNFTEIQKLVLDVAHVHEHCCRGDVLDCLQDGEKIMSYICSQQDTLSNKITECCKLTTLERGQCIIHAENDEKPEGLSPNLNRFLGDRDFNQFSSGEKNIFLASFVHEYSRRHPQLAVSVILRVAKGYQELLEKCFQTENPLECQDKGEEELQKYIQESQALAKRSCGLFQKLGEYYLQNAFLVAYTKKAPQLTSSELMAITRKMAATAATCCQLSEDKLLACGEGAADIIIGHLCIRHEMTPVNPGVGQCCTSSYANRRPCFSSLVVDETYVPPAFSDDKFIFHKDLCQAQGVALQTMKQEFLINLVKQKPQITEEQLEAVIADFSGLLEKCCQGQEQEVCFAEEGQKLISKTRAALGV
[1]; 5-th day after injection
  total AFC amount in comparison with control (in words): not significantly changed
  relative amount of AFC: 255.5±13 per 10^6 cells
  total AFC amount: 23.6±1.5 10^3 per spleen
[1]; 5-th day after injection, AFP 0.009 mg per capita i.v.
  lower relative amount of AFC in comparison with control group: 30%
[1]
  immunogenic / immunostimulating activity, effect on humoral immune response (in words): reduces or does not significantly effect the immunogenic characteristics of sheep erythrocytes
